Measured values from patent US7776826B2, “Method for fostering bone formation and preservation” (Unigene Laboratories, Inc., priority 2004, dated 2010).

Tests used:
Format in all cases: in vivo, rat
[1] = test system: osteoporotic female Sprague-Dawley rats; assay: Lumbar vertebral bone mineral density and bone formation rate in ovariectomized osteoporotic rats, without mechanical induction; conditions: OVX rats, 4 weeks subcutaneous treatment, no mechanical induction
Experimental: FIG. 15 is a bar graph comparing the Lumbar Vertebral Bone Mineral Density obtained in osteoporotic female Sprague-Dawley rats wherein the osteoporosis was induced via an ovariectomy. The rats were treated with (1) PTH[1-31]-NH2; (2) PTH[1-34]-NH2; and PTH[1-34]-OH; and
FIG. 16 is a bar graph comparing the Lumbar Vertebral Bone Formation Rate obtained in osteoporotic female Sprague-Dawley rats wherein the osteoporosis was induced via an ovariectomy. The rats were treated with (1) PTH[1-31]-NH2; (2) PTH[1-34]-NH2; and PTH[1-34]-OH.
A series of experiments was performed comparing (1) lumbar vertebral bone mineral density, and (2) lumbar vertebral bone formation rate achieved with PTH[1-31]-NH2 and PTH[1-34]-OH compared to the preferred PTH[1-34]-NH2 analog discussed above in the absence of the mechanical induction step of the invention. The study involved a four-week treatment of female Sprague-Dawley rats at 10 months of age, and 6 months post-ovariectomy (“OVX”), which induces osteoporosis, with one of the three above-noted parathyroid hormone truncates. The rats were randomized into the following groups: sham OVX, OVX+ vehicle, OVX+PTH [1-31]-NH2 or PTH [1-34]-NH2 (obtained from Unigene Laboratories, Inc.) at 2.5, 10 or 40 μg/kg/day subcutaneous, or PTH[1-34]-OH (obtained from Bachem) at 10 μg/kg/day subcutaneous. After 4 weeks of treatment, the right femur of each animal was analyzed by DEXA and bone histomorphometry. FIG. 15 is a bar graph providing a comparison of the lumbar vertebral bone mineral density achieved with PTH[1-31]-NH2, PTH[1-34]-NH2 and PTH[1-34]-OH. FIG. 16 is a bar graph comparing the lumbar vertebral formation rates achieved with these same truncates. […] Because of the similarity of anabolic action among the above-discussed parathyroid hormones, it is therefore reasonable to expect that all known PTH analogs will advantageously function in the desired manner in the method of the present invention.

[2] = test system: Male Sprague-Dawley rats; assay: Serum osteocalcin concentration at day 21, Groups K-R
Description: FIG. 12 provides a measurement of the serum osteocalcin concentration (in ng/ml) in the blood of the rats in Groups K-R when the rats were sacrificed 21 days after commencement of treatment. The meaning of the abbreviated terms is the same as in FIGS. 10 and 11. […] [*=p value<0.05, while **=p value<0.01];
FIG. 12 is a bar graph which sets forth the osteocalcin levels determined, at the time of sacrifice, in the blood serum of the rats which were the subject of the analyses illustrated in FIGS. 10 and 11. As indicated above, it is well known that osteocalcin is a biochemical marker indicative of new bone growth.
The table additionally includes the standard deviations for the values obtained for each analysis, which standard deviations are also included in FIG. 12.

[3] = test system: Male Sprague-Dawley rats; assay: MicroCT analysis of femoral shafts, Groups K-R; conditions: left femoral shaft with bmx, agent for 21 days
Description: FIG. 13(a-b) illustrate the results of Micro Computerized Tomography (MicroCT) analysis of the left (ablated) and right (non-ablated) femoral shafts of the rats of Groups K-R. The abbreviations are the same as those used in FIGS. 10-12;
FIG. 13 (a-b) provides a comparison between Micro Computerized Tomography (MicroCT) analyses of bone samples taken from the left femoral shaft (FIG. 13a) and the right femoral shaft (FIG. 13b) of rats treated in the manner indicated in FIGS. 10-12. As in the other cases discussed above, the most significant amount of new bone growth is found in the shaft of the left femur, since this shaft was subjected to the bmx treatment. […] In contrast, the right femoral shaft sections show very little or no increase in bone growth at all.

PTH[1-34]-NH2
bone anabolic activity (lumbar vertebral bone mineral density and bone formation rate) [1]: substantially equivalent | osteocalcin level, in words ([2]; bmx + agent daily for 21 days): highest osteocalcin level | Osteocalcin mean ([2]; bmx rats, day 21, agent daily for 21 days, Groups K-R): 141.5 ng/mL | new bone growth in MicroCT, in words [3]: significant degree of improvement
